Data published in ChEMBL document CHEMBL3745631, “Discovery of highly potent and selective Bruton's tyrosine kinase inhibitors: Pyridazinone analogs with improved metabolic stability” (Bioorg Med Chem Lett, 2016).

Experiments:
[1] = molecular target: PAS domain-containing serine/threonine-protein kinase (Homo sapiens) (UniProt Q96RG2); test: Inhibition of PASK (unknown origin) at 1 uM
[2] = molecular target: Casein kinase I isoform gamma-2 (Homo sapiens) (UniProt P78368); test: Inhibition of CK1 gamma2 (unknown origin) at 1 uM
[3] = test system: Rattus norvegicus; test: Clearance in rat at 1 mg/kg, iv by LC-MS/MS analysis; assay type: ADME, organism-based; details: in vivo
[4] = molecular target: Cyclin-dependent kinase 1/cyclin B1 (Homo sapiens) (UniProt P06493+P14635); test: Inhibition of CDK1/cyclinB (unknown origin) at 1 uM; assay type: protein-complex assay
Sequence of Cyclin-dependent kinase 1/cyclin B1 (Homo sapiens) (P06493 whole entry, looked up): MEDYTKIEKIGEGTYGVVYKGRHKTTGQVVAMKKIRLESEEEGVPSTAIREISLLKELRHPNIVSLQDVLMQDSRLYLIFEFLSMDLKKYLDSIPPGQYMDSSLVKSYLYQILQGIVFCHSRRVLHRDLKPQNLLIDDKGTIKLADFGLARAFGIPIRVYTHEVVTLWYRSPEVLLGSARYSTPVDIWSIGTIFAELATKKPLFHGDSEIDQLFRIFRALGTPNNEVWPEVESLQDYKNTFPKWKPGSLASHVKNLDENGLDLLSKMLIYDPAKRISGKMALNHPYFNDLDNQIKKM
Sequence of Cyclin-dependent kinase 1/cyclin B1 (Homo sapiens) (P14635 whole entry, looked up): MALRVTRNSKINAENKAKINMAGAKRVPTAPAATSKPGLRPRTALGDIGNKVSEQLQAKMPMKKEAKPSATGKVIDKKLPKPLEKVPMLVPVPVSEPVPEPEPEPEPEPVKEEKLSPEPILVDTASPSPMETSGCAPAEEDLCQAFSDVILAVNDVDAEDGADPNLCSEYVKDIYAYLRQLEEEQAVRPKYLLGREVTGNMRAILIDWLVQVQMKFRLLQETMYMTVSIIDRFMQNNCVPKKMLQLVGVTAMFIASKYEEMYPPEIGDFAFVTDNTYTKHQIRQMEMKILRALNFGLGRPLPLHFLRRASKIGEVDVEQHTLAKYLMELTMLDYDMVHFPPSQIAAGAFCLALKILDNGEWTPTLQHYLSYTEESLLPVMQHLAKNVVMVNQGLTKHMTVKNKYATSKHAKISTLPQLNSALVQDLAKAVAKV

[5] = molecular target: Serine/threonine-protein kinase 16 (Homo sapiens) (UniProt O75716); test: Inhibition of STK16 (unknown origin) at 1 uM
[6] = molecular target: Tyrosine-protein kinase FRK (Homo sapiens) (UniProt P42685); test: Inhibition of Frk (unknown origin) at 1 uM
[7] = molecular target: Mitogen-activated protein kinase 1 (Homo sapiens) (UniProt P28482); test: Inhibition of ERK2 (unknown origin) at 1 uM
[8] = molecular target: Platelet-derived growth factor receptor beta (Homo sapiens) (UniProt P09619); test: Inhibition of PDGFR_beta (unknown origin) at 1 uM
[9] = molecular target: Tyrosine-protein kinase receptor TYRO3 (Homo sapiens) (UniProt Q06418); test: Inhibition of Rse (unknown origin) at 1 uM
[10] = molecular target: Mitogen-activated protein kinase kinase kinase 10 (Homo sapiens) (UniProt Q02779); test: Inhibition of MLK2 (unknown origin) at 1 uM
[11] = molecular target: SRSF protein kinase 3 (Homo sapiens) (UniProt Q9UPE1); test: Inhibition of MSSK1 (unknown origin) at 1 uM
Sequence of SRSF protein kinase 3 (Homo sapiens) (Q9UPE1 whole entry): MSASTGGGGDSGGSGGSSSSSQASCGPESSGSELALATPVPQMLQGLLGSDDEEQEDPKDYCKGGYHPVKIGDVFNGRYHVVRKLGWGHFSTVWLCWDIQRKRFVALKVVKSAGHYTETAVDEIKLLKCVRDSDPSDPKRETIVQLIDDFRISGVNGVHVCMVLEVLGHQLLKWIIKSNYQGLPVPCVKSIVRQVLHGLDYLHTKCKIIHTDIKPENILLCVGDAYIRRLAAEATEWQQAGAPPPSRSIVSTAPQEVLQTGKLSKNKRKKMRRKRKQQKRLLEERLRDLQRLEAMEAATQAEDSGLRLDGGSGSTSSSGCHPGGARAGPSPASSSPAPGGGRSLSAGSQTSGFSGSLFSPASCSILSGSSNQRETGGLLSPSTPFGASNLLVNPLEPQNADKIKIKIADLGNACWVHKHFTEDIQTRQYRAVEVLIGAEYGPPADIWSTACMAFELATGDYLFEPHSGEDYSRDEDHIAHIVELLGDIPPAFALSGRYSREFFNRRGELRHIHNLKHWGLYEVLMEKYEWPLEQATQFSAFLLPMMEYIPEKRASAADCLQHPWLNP

[12] = molecular target: Tyrosine-protein kinase SYK (Homo sapiens) (UniProt P43405); test: Inhibition of Syk (unknown origin) at 1 uM
[13] = molecular target: Wee1-like protein kinase (Homo sapiens) (UniProt P30291); test: Inhibition of WEE1 (unknown origin) at 1 uM
[14] = molecular target: Phosphorylase b kinase gamma catalytic chain, skeletal muscle/heart isoform (Homo sapiens) (UniProt Q16816); test: Inhibition of PhK gamma1 (unknown origin) at 1 uM
[15] = molecular target: Maternal embryonic leucine zipper kinase (Homo sapiens, UniProt Q14680); test: Inhibition of MELK (unknown origin) at 1 uM
[16] = molecular target: Dual specificity protein kinase CLK4 (Homo sapiens) (UniProt Q9HAZ1); test: Inhibition of CLK4 (unknown origin) at 1 uM
[17] = molecular target: Dual specificity mitogen-activated protein kinase kinase 6 (Homo sapiens) (UniProt P52564); test: Inhibition of MKK6 (unknown origin) at 1 uM
[18] = molecular target: Tyrosine-protein kinase ZAP-70 (Homo sapiens) (UniProt P43403); test: Inhibition of ZAP-70 (unknown origin) at 1 uM
[19] = molecular target: Mitogen-activated protein kinase 11 (Homo sapiens) (UniProt Q15759); test: Inhibition of p38 beta (unknown origin) at 1 uM
Sequence of Mitogen-activated protein kinase 11 (Homo sapiens) (Q15759 whole entry): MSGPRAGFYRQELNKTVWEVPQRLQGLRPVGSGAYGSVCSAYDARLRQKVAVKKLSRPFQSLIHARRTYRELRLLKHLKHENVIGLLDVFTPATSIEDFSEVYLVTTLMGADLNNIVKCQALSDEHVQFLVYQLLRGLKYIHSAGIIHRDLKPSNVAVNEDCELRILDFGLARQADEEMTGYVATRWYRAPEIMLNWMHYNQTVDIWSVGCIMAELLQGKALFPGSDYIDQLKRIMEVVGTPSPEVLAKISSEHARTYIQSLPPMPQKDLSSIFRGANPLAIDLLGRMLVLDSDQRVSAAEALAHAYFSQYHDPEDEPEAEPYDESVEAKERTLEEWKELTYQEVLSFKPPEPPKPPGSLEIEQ

[20] = molecular target: Protein-tyrosine kinase 6 (Homo sapiens) (UniProt Q13882); test: Inhibition of Brk (unknown origin) at 1 uM
[21] = test system: Liver microsome; test: Intrinsic clearance in human liver microsomes at 1 uM by LC-MS/MS analysis in presence of NADPH; assay type: ADME
[22] = molecular target: Fibroblast growth factor receptor 4 (Homo sapiens) (UniProt P22455); test: Inhibition of FGFR4 (unknown origin) at 1 uM
[23] = molecular target: Mitogen-activated protein kinase 9 (Homo sapiens) (UniProt P45984); test: Inhibition of JNK2 (unknown origin) at 1 uM
[24] = molecular target: G protein-coupled receptor kinase 5 (Homo sapiens) (UniProt P34947); test: Inhibition of GRK5 (unknown origin) at 1 uM
[25] = molecular target: Protein kinase C eta type (Homo sapiens) (UniProt P24723); test: Inhibition of PKCeta (unknown origin) at 1 uM
Sequence of Protein kinase C eta type (Homo sapiens) (P24723 whole entry, canonical isoform): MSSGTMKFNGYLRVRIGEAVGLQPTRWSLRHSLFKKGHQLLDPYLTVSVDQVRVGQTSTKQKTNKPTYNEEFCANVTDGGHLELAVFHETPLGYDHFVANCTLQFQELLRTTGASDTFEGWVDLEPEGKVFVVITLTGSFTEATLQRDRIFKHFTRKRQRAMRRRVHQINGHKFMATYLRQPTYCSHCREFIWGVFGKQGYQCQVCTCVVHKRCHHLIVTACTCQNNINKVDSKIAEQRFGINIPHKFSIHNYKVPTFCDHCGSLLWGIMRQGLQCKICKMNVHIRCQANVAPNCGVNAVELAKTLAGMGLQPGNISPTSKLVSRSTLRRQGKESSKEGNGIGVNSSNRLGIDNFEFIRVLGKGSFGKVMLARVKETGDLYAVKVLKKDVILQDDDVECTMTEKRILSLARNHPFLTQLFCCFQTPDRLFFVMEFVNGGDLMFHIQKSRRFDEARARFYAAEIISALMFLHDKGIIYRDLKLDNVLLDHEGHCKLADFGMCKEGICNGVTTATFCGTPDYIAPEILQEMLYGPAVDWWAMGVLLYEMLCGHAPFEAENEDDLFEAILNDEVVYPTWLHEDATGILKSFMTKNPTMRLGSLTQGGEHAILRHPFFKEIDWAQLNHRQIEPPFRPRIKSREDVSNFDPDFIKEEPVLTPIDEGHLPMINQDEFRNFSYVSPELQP

[26] = molecular target: Phosphorylase b kinase gamma catalytic chain, liver/testis isoform (Homo sapiens) (UniProt P15735); test: Inhibition of PhK gamma2 (unknown origin) at 1 uM
[27] = molecular target: Dual specificity protein kinase TTK (Homo sapiens) (UniProt P33981); test: Inhibition of TTK (unknown origin) at 1 uM
[28] = molecular target: Insulin receptor-related protein (Homo sapiens) (UniProt P14616); test: Inhibition of IRR (unknown origin) at 1 uM
Sequence of Insulin receptor-related protein (Homo sapiens) (P14616 27-742 limits assumed): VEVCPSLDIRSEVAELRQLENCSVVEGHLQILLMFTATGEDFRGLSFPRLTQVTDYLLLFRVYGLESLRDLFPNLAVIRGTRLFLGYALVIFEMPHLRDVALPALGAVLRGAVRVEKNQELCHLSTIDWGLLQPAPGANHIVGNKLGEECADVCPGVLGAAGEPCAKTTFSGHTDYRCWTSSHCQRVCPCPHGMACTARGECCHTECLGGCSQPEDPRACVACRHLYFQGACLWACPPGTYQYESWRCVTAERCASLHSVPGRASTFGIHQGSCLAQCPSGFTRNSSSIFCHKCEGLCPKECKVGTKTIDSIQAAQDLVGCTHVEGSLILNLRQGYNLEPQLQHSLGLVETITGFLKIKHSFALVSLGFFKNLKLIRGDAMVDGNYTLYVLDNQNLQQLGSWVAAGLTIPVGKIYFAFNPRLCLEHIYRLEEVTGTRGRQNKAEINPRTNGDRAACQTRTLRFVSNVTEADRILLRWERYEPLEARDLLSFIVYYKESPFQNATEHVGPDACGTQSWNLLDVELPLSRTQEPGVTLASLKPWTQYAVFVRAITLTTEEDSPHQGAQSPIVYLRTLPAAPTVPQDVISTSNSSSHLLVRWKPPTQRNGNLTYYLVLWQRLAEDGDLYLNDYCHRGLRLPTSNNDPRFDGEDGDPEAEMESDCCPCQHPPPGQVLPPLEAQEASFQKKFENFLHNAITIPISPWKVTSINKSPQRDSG
Sequence of Insulin receptor-related protein (Homo sapiens) (P14616 747-1297 limits assumed): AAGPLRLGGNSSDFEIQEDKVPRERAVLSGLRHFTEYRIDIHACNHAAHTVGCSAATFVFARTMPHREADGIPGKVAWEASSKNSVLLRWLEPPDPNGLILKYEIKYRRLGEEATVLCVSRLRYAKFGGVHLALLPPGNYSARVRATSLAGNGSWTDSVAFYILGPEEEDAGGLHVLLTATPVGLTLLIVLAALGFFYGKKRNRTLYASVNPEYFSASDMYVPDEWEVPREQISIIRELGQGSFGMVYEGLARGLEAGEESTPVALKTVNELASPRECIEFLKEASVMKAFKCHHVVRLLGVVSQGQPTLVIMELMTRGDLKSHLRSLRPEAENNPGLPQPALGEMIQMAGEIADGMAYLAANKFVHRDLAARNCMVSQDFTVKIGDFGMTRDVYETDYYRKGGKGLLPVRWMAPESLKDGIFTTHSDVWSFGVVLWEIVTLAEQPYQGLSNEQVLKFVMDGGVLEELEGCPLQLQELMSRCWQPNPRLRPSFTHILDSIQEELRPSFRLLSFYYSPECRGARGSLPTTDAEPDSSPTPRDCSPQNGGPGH

[29] = molecular target: Casein kinase I isoform delta (Homo sapiens) (UniProt P48730); test: Inhibition of CK1 delta (unknown origin) at 1 uM
[30] = molecular target: Calcium/calmodulin-dependent protein kinase type II subunit alpha (Homo sapiens) (UniProt Q9UQM7); test: Inhibition of CamK2 alpha (unknown origin) at 1 uM
[31] = molecular target: Serine/threonine-protein kinase PAK 4 (Homo sapiens) (UniProt O96013); test: Inhibition of PAK4 (unknown origin) at 1 uM
[32] = molecular target: Serine/threonine-protein kinase Nek6 (Homo sapiens) (UniProt Q9HC98); test: Inhibition of NEK6 (unknown origin) at 1 uM
[33] = molecular target: Glycogen synthase kinase-3 beta (Homo sapiens) (UniProt P49841); test: Inhibition of GSK3 beta (unknown origin) at 1 uM
[34] = molecular target: MAP kinase-interacting serine/threonine-protein kinase 2 (Homo sapiens) (UniProt Q9HBH9); test: Inhibition of MKNK2 (unknown origin) at 1 uM
[35] = molecular target: Serine/threonine-protein kinase 25 (Homo sapiens) (UniProt O00506); test: Inhibition of YSK1 (unknown origin) at 1 uM
Sequence of Serine/threonine-protein kinase 25 (Homo sapiens) (O00506 whole entry, looked up): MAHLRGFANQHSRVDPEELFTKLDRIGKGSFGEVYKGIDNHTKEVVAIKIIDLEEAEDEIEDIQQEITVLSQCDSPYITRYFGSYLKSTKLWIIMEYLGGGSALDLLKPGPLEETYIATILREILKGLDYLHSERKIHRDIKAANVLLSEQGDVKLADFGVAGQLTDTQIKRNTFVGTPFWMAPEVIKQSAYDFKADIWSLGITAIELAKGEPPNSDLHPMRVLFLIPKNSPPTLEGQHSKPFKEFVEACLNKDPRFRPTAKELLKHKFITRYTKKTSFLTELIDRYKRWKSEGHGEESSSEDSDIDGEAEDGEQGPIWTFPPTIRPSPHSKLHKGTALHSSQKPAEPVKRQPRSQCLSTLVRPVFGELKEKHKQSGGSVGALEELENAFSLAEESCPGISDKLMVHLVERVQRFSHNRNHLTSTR

[36] = molecular target: Tyrosine-protein kinase Fgr (Homo sapiens, UniProt P09769); test: Inhibition of FGR (unknown origin) at 1 uM
Sequence of Tyrosine-protein kinase Fgr (P09769 2-529 limits assumed): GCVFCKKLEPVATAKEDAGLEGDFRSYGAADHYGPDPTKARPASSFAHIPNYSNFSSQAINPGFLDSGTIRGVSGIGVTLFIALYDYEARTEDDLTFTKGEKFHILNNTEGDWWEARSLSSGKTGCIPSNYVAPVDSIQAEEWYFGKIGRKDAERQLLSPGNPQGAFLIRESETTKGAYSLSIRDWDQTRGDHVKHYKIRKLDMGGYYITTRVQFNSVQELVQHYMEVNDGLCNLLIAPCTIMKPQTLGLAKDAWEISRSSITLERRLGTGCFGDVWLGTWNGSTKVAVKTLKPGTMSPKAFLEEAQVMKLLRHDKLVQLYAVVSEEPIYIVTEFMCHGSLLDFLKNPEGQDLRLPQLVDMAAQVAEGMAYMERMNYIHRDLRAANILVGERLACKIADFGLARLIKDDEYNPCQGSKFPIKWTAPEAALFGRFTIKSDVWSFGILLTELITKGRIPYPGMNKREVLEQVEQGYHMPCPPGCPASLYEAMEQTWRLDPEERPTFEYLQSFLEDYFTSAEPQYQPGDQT

[37] = molecular target: hERG (KCNH2) (Homo sapiens, UniProt Q12809); test: Inhibition of human ERG at 10 uM
[38] = molecular target: Serine/threonine-protein kinase pim-1 (Homo sapiens) (UniProt P11309); test: Inhibition of PIM1 (unknown origin) at 1 uM
Sequence of Serine/threonine-protein kinase pim-1 (Homo sapiens) (P11309 whole entry, looked up): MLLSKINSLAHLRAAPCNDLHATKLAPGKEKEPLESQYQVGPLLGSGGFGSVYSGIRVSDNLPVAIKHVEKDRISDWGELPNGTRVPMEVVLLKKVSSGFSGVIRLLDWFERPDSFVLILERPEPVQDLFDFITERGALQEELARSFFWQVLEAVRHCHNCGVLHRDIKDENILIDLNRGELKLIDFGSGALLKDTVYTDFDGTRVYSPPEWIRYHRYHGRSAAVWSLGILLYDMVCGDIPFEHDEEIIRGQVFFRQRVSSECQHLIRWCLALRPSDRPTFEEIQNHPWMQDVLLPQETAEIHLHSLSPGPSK

[39] = molecular target: STE20-like serine/threonine-protein kinase (SLK) (Homo sapiens) (UniProt Q9H2G2); test: Inhibition of SLK (unknown origin) at 1 uM
[40] = molecular target: Leucine-rich repeat serine/threonine-protein kinase 2 (Homo sapiens) (UniProt Q5S007); test: Inhibition of LRRK2 (unknown origin) at 1 uM
[41] = molecular target: Tyrosine-protein kinase Lck (Homo sapiens) (UniProt P06239); test: Inhibition of LCK (unknown origin) at 1 uM
[42] = molecular target: SRSF protein kinase 2 (Homo sapiens) (UniProt P78362); test: Inhibition of SRPK2 (unknown origin) at 1 uM
[43] = molecular target: Ephrin type-B receptor 3 (Homo sapiens) (UniProt P54753); test: Inhibition of EphB3 (unknown origin) at 1 uM
[44] = molecular target: Tyrosine-protein kinase TXK (Homo sapiens) (UniProt P42681); test: Inhibition of TXK (unknown origin) at 1 uM

inhibition [1]: 6.2% | inhibition [2]: 1.9% | clearance [3]: 5 mL/min/kg | inhibition [4]: 7.3% | inhibition [5]: 11% | inhibition [6]: -0.8% | inhibition [7]: 6.8% | inhibition [8]: 8% | inhibition [9]: 2.5% | inhibition [10]: 7.3% | inhibition [11]: 3.4% | inhibition [12]: 5.6% | inhibition [13]: -1.8% | inhibition [14]: -1.2% | inhibition [15]: 50% | inhibition [16]: 5.8% | inhibition [17]: 3% | inhibition [18]: 8.1% | inhibition [19]: 8.7% | inhibition [20]: 3.5% | CLH [21]: 6 mL/min/kg | inhibition [22]: -3.5% | inhibition [23]: 1.8% | inhibition [24]: 3.8% | inhibition [25]: -8% | inhibition [26]: 1.8% | inhibition [27]: 7.2% | inhibition [28]: 2.3% | inhibition [29]: 4.7% | inhibition [30]: 2.8% | inhibition [31]: 6.2% | inhibition [32]: 5.3% | inhibition [33]: 11.1% | inhibition [34]: -0.2% | inhibition [35]: -3.4% | inhibition [36]: 69.8% | inhibition [38]: 4.5% | inhibition [39]: -3% | inhibition [40]: 4.7% | inhibition [41]: 39.3% | inhibition [42]: -2% | inhibition [43]: 2.5% | inhibition [44]: -4.7%
Compound: Cc1c(-c2cc(Nc3cc4n(n3)CCN(C)C4)c(=O)[nH]n2)ccc(F)c1NC(=O)c1cc2ccccc2s1
inhibition at 10 µM [37]: 27%
